In data set [1] the test system is Subcutaneous Pentylenetetrazol seizure. Briefly: sc Met subcutaneous pentylenetetrazol (Metrazol) seizure test, mice. Type of data set: in vivo. To be noted: Mus musculus, sc, read-out: scMet, animals protected/tested (converted).
Another data set deals with seizures. The data set can be described thus: Anticonvulsant evaluation (ASP phase I / overall). Type of data set: in vivo, mice. The note with it: Mus musculus, ip; Phase I; read-out: ASP Classification. On the procedure: (§1) The first phase of the ADD Program involved performing tests on male Carworth Farms #1 mice. […] Three tests were performed:
(§2) Maximal electroshock seizures are elicited with a 60-cycle alternating current of 50 mA intensity (5-7 times that necessary to elicit minimal electroshock seizures) delivered via corneal electrodes for 0.2 seconds. A drop of 0.9% saline is instilled in the eye prior to application of the electrodes in order to […].
The animal is observed for 30 minutes.

Data set [2] deals with Maximal electroshock seizures. The data set can be described thus: MES maximal electroshock seizure test, mice ip. The data set is classed as in vivo. To be noted: for responders at 300 mg/kg: read-out: MES, animals protected/tested; for responders at 100 mg/kg / responders at 10 mg/kg: read-out: MES, animals protected/tested (converted); for responders at 10 mg/kg: mice ip. Also on record: TPE (time of peak effect), activity: unit not given here. On the procedure: Three tests were performed:
1. MES--Electroshock Seizure Test
as §2

The nature of data set [3]: in vivo. To be noted: for Tox (rotorod), animals toxic/tested: mouse, in vivo, 100 mg/kg. On the procedure: as §1
In the second phase of the ADD program protocol, estimates of anticonvulsant activity and neurotoxicity are quantified. The median effective dose (ED50) in the MES, sc Met, and rotorod test is determined. In the case of a compound with apparent activity in only one anticonvulsant test, testing is carried out in the other up to, and in some cases beyond, doses which produce neurological deficit. Compounds which fail to produce minimal neurological deficit are tested whenever possible to doses ten times their lowest anticonvulsant ED50. […] The rotorod ED50 is determined at the time of the peak neurologic deficit.

Data set [4] can be described thus: in vivo. The note with it: rat, po, 50 mg/kg. From the text:
(§3) This oral screen is designated as phase VI.

Data set [5] concerns Maximal electroshock seizures. The data set can be described thus: Phase VI oral MES test, rats. Type of data set: in vivo. The note with it: Rattus norvegicus, oral, 50 mg/kg, read-out: MES, animals protected/tested (converted).
Excerpt: as §2, §3

[6] abbreviates: Mus musculus, ip, 0.5 h, 30 min.
The mark [7] stands for this setting: Mus musculus, ip, 2 h, Phase II, 2.00 h.
Where [8] appears, read: Mus musculus, ip, 3 h, Phase II, 3.00 h.

This note sets out measurements from patent US5616615A, “Enaminone esters” (priority 1995, dated 1997).

Read-outs that look alike come from different tables or passages of the source.

For orientation: ED50 means the dose at which the effect has come halfway, by size or by number of responders.

As for `COC(=O)C1C(=O)C=C(Nc2ccc([N+](=O)[O-])cc2)CC1(C)C` (stereo not shown) [Compound 118], the responders at 300 mg/kg in data set [1] (0.5 h, 30 min) is 0%; in data set [1] (4 h, 4 h), 0%; in data set [2] (setting [6]), 0%; in data set [2] (Mus musculus, ip, 4 h, 4 h), 100%. In the data set on seizures, the minimal effective dose is more than 100 mg/kg. The responders at 100 mg/kg in data set [2] (setting [7]) and in data set [2] (setting [8]) was 0% each time. Moreover, the “Tox (rotorod), animals toxic/tested” value in “in vivo [3]” is recorded as 0/2.

Consider `CCc1ccc(NC2=CC(=O)CC(C)(C)C2)cc1` [Compound 140], for which the responders at 300 mg/kg in data set [1] (0.5 h, 30 min) is 0%; in data set [1] (4 h, 4 h), 0%; in data set [2] (setting [6]), 0%; in data set [2] (Mus musculus, ip, 4 h, 4 h), 100%. In the data set on seizures, the minimal effective dose was more than 100 mg/kg. Moreover, the responders at 100 mg/kg in data set [2] (setting [7]) and in data set [2] (setting [8]) was 0% in each case. Further, the “Tox (rotorod), animals toxic/tested” value in the data set “in vivo [3]” is 0/2.

Turning to `O=C1C=C(Nc2ccc(C(F)(F)F)cc2)CCC1` [Compound 151], the responders at 100 mg/kg in data set [1] (0.5 h, 30 min) was 0%; in data set [1] (4 h, 4 h) it was 0%; in data set [2] (setting [6]), 100%; in data set [2] (Mus musculus, ip, 4 h, 4 h), 0%. The responders at 300 mg/kg was 0% in data set [1] (0.5 h, 30 min); 0% in data set [1] (4 h, 4 h); 100% in data set [2] (setting [6]); 100% in data set [2] (Mus musculus, ip, 4 h, 4 h). Further, the minimal effective dose with seizures was less than 100 mg/kg. In addition, the “Tox, animals toxic/tested” value in “in vivo [4]” was 0/4. The responders at 50 mg/kg was 25% in data set [5] (0.5 h, 0.50 h); 75% in data set [5] (0.25 h); 25% in data set [5] (1.00 h); 50% in data set [5] (2.00 h); 0% in data set [5] (4.00 h).

For `CCCC(CCC)C(=O)O` [valproate, reference compound], the 50% effect level in data set [2] (Mus musculus, Phase II, ip, time of peak effect) (ED50) was put at a dose of 665 mg/kg. Besides, in data set [2] (Phase II, ip), the “TPE (time of peak effect), activity” value was 1. The “TPE (time of peak effect), toxicity” value in the data set “in vivo [3]” (Phase II, ip, commercial products, onset of ataxia) came to 2.

As to `CC(C)(C)c1ccc(NC2=CC(=O)CCC2)cc1` [Compound 150], the responders at 100 mg/kg in data set [1] (0.5 h, 30 min) is 0%; in data set [1] (4 h, 4 h) it was 0%; in data set [2] (setting [6]) it was 100%; in data set [2] (Mus musculus, ip, 4 h, 4 h) it was 0%. Also, the responders at 300 mg/kg in data set [1] (0.5 h, 30 min) is 60%; in data set [1] (4 h, 4 h) it was 0%; in data set [2] (setting [6]), 100%; in data set [2] (Mus musculus, ip, 4 h, 4 h), 100%. Moreover, in the data set with seizures, the minimal effective dose is less than 100 mg/kg. Moreover, in “in vivo [4]”, the “Tox, animals toxic/tested” value is reported as 0/4. In addition, the responders at 50 mg/kg in data set [5] (0.5 h, 0.50 h) is 50%; in data set [5] (0.25 h), 50%; in data set [5] (1.00 h) it was 75%; in data set [5] (2.00 h), 25%; in data set [5] (4.00 h), 50%.

Turning to `CC1(C)CC(=O)C=C(Nc2ccc(C(F)(F)F)cc2)C1` [Compound 144], the responders at 100 mg/kg is 0% in data set [1] (0.5 h, 30 min); 0% in data set [1] (4 h, 4 h); 0% in data set [2] (setting [6]); 66.7% in data set [2] (Mus musculus, ip, 4 h, 4 h). Also, the responders at 300 mg/kg was 100% in data set [1] (0.5 h, 30 min); 0% in data set [1] (4 h, 4 h); 0% in data set [2] (setting [6]); 0% in data set [2] (Mus musculus, ip, 4 h, 4 h). For the same compound, the minimal effective dose in the data set on seizures is less than 100 mg/kg. Also, in the data set “in vivo [4]”, the “Tox, animals toxic/tested” value is reported as 0/4. For the same compound, the responders at 50 mg/kg in data set [5] (0.5 h, 0.50 h) is 0%; in data set [5] (0.25 h) it was 0%; in data set [5] (1.00 h), 75%; in data set [5] (2.00 h), 25%; in data set [5] (4.00 h) it was 100%.

As to `CCOC(=O)C1C(=O)C=C(Nc2ccc(C)cc2)CC1C` (stereo not shown) [Compound 125], the responders at 100 mg/kg in data set [1] (0.5 h, 30 min) was 0%; in data set [1] (4 h, 4 h), 0%; in data set [2] (setting [6]) it was 33.3%; in data set [2] (Mus musculus, ip, 4 h, 4 h), 0%. Besides, the responders at 300 mg/kg in data set [1] (0.5 h, 30 min) was 0%; in data set [1] (4 h, 4 h), 0%; in data set [2] (setting [6]), 100%; in data set [2] (Mus musculus, ip, 4 h, 4 h), 0%. For the same compound, the minimal effective dose in the data set with seizures was less than 100 mg/kg. For the same compound, the responders at 10 mg/kg in data set [2] (Mus musculus, ip, 0.25 h, 0.25 h) was 25%; in data set [2] (Mus musculus, ip, 0.5 h, 0.50 h) it was 0%; in data set [2] (Mus musculus, ip, 1 h, 1.00 h), 25%; in data set [2] (Mus musculus, ip, 2 h, 2.00 h), 0%; in data set [2] (Mus musculus, ip, 4 h, 4.00 h), 0%. Moreover, the “anti-MES protecting ability” value in data set [2] (Phase I) is “showed anti-MES protecting ability”. The “Tox, animals toxic/tested” value in “in vivo [4]” is given as 0/4. Further, the responders at 50 mg/kg in data set [5] (0.5 h, 0.50 h) was 100%; in data set [5] (0.25 h) it was 100%; in data set [5] (1.00 h) it was 100%; in data set [5] (2.00 h) it was 100%; in data set [5] (4.00 h), 100%.

Consider `COC(=O)C1C(=O)C=C(Nc2ccc(Cl)cc2)CC1(C)C` (stereo not shown) [Compound 119], for which the responders at 100 mg/kg in data set [1] (0.5 h, 30 min) was 0%; in data set [1] (4 h, 4 h), 0%; in data set [2] (setting [6]) it was 100%; in data set [2] (Mus musculus, ip, 4 h, 4 h), 100%. The responders at 300 mg/kg in data set [1] (0.5 h, 30 min) was 100%; in data set [1] (4 h, 4 h) it was 100%; in data set [2] (setting [6]), 100%; in data set [2] (Mus musculus, ip, 4 h, 4 h) it was 100%. The minimal effective dose in the data set on seizures was less than 100 mg/kg. The “Tox, animals toxic/tested” value in the data set “in vivo [4]” was 0/4. Moreover, the responders at 50 mg/kg in data set [5] (0.5 h, 0.50 h) was 75%; in data set [5] (0.25 h) it was 100%; in data set [5] (1.00 h), 100%; in data set [5] (2.00 h) it was 100%; in data set [5] (4.00 h) it was 100%.

Take `O=C1C=C(Nc2ccc(Cl)cc2)CC1` [Compound 152, 3-(4'-Chlorophenyl)amino-2-cyclopentenone]: the responders at 100 mg/kg in data set [1] (0.5 h, 30 min) was 0%; in data set [1] (4 h, 4 h), 0%; in data set [2] (setting [6]) it was 33.3%; in data set [2] (Mus musculus, ip, 4 h, 4 h) it was 0%. In addition, the responders at 300 mg/kg in data set [1] (0.5 h, 30 min) was 0%; in data set [1] (4 h, 4 h), 0%; in data set [2] (setting [6]), 100%; in data set [2] (Mus musculus, ip, 4 h, 4 h), 0%. The minimal effective dose in the data set on seizures is less than 100 mg/kg. The “Tox, animals toxic/tested” value in “in vivo [4]” is on record as 0/4. In addition, the responders at 50 mg/kg in data set [5] (0.5 h, 0.50 h) is 25%; in data set [5] (0.25 h) it was 0%; in data set [5] (1.00 h) it was 25%; in data set [5] (2.00 h) it was 75%; in data set [5] (4.00 h) it was 50%.

Turning to `O=C1C=C(NCc2ccccc2)CCC1` [Compound 148], the responders at 100 mg/kg is 0% in data set [1] (0.5 h, 30 min); 0% in data set [1] (4 h, 4 h); 100% in data set [2] (setting [6]); 0% in data set [2] (Mus musculus, ip, 4 h, 4 h). For the same compound, the responders at 300 mg/kg is 0% in data set [1] (0.5 h, 30 min); 0% in data set [1] (4 h, 4 h); 100% in data set [2] (setting [6]); 0% in data set [2] (Mus musculus, ip, 4 h, 4 h). Further, the minimal effective dose in the data set on seizures is less than 100 mg/kg. For the same compound, in the data set “in vivo [4]”, the “Tox, animals toxic/tested” value is reported as 0/4. Besides, the responders at 50 mg/kg in data set [5] (0.5 h, 0.50 h) was 50%; in data set [5] (0.25 h), 0%; in data set [5] (1.00 h) it was 50%; in data set [5] (2.00 h), 50%; in data set [5] (4.00 h), 75%.
